Paper PMC4074034, “Gefitinib and Luteolin Cause Growth Arrest of Human Prostate Cancer PC-3 Cells via Inhibition of Cyclin G-Associated Kinase and Induction of miR-630” (PLoS ONE, 2014)

Target: T1, GAK (cyclin G-associated kinase), GST-tagged human GAK (Homo sapiens, UniProt O14976)
T1 sequence (O14976 1-1311): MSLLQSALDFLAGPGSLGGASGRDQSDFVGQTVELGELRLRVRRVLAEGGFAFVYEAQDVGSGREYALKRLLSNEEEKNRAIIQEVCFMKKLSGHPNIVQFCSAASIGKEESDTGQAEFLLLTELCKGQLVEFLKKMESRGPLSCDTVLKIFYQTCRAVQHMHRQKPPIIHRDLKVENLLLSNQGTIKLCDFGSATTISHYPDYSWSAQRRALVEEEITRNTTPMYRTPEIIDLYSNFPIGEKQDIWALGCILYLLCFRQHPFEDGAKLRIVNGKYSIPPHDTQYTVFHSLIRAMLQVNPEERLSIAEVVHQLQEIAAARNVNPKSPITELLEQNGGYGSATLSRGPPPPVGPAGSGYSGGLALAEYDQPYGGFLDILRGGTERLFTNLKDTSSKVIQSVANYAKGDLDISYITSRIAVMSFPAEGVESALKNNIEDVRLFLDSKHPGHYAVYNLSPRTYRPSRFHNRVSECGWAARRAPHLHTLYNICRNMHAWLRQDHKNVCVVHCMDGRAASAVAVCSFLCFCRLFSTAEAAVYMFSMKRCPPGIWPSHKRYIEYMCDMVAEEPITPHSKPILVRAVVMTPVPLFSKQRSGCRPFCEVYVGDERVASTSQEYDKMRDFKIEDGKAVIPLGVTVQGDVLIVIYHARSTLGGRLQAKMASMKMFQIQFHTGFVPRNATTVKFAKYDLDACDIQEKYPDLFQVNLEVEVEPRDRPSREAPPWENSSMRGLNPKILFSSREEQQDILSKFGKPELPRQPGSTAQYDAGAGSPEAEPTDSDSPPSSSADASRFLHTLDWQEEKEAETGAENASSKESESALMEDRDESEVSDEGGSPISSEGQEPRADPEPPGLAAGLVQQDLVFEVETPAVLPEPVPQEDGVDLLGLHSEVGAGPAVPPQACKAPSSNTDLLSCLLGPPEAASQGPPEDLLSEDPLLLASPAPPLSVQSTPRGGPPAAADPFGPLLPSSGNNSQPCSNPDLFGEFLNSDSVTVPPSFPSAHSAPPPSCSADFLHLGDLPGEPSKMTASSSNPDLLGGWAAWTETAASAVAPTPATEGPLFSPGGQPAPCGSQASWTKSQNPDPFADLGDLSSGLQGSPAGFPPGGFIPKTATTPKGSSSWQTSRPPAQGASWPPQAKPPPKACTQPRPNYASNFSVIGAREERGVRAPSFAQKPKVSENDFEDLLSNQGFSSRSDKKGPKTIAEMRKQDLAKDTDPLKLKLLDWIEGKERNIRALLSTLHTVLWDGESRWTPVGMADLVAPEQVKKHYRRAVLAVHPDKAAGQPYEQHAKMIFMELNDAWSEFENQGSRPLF
Assay: […]-ATP in vitro kinase assay, SDS-PAGE autoradiography
Assay type: biochemical
Details: substrate mouse PP2A B'γ fragment, also autophosphorylation, 5 µM ATP, 10 mM MgCl2, 5 mM MnCl2, pH 7.5, 30°C, 30 min

SMILES | intensity ratio of phosphorylated PP2A B'γ and GAK (10 µM compound) | intensity ratio of phosphorylated PP2A B'γ and GAK
Oc1ccc(/C=C/c2cc(O)cc(O)c2)cc1 [resveratrol] | the same concentration of resveratrol had only a slight inhibitory effect | –
C[S+]([O-])c1ccc(-c2nc(-c3ccc(F)cc3)c(-c3ccncc3)[nH]2)cc1 (stereo not shown) [SB203580] | – | Both of these compounds inhibited GAK activity similarly
C#Cc1cccc(Nc2ncnc3cc(OCCOC)c(OCCOC)cc23)c1 [erlotinib] | – | Both of these compounds inhibited GAK activity similarly
COc1cc2ncnc(Nc3ccc(F)c(Cl)c3)c2cc1OCCCN1CCOCC1 [gefitinib] | – | Gefitinib inhibited GAK autophosphorylation and GAK-mediated phosphorylation of PP2A B′γ in a dose-dependent manner
